The assay concerns BDF1 mice, Friend leukemia sc, tumor weight T/C. As to the kind of experiment: NCI In Vivo Anticancer Drug Screen. Data for tumor model Friend Virus Leukemia (Solid) (subcutaneous) in B6D2F1 (BDF1) mice. Conditions: endpoint: mean tumor weight, higher = larger tumour. On the procedure:
The antitumor activity of compounds was measured in mice bearing transplantable tumors. Survival or tumor size were measured and the results are expressed as the measurement made in the treated group (T) divided by the measurement made in the vehicle treated control group (C). The tumor model used in this assay is Friend Virus Leukemia (Solid) (subcutaneous) in B6D2F1 (BDF1) mice

Where [1] appears, read: dose: 32.0 mg/kg/injection, schedule: Q01DX011 (ip), vehicle: saline.
The mark [2] stands for this setting: dose: 25.0 mg/kg/injection, schedule: Q01DX011 (ip), vehicle: carboxymethylcellulose (CMC).
The mark [3] stands for this setting: dose: 100.0 mg/kg/injection, schedule: Q01DX011 (ip), vehicle: carboxymethylcellulose (CMC).
Setting [4] is: dose: 5.0 mg/kg/injection, schedule: Q01DX011 (ip), vehicle: carboxymethylcellulose (CMC).

Molecules are shown by their SMILES. Where “and” joins values, the source holds several entries; their conditions need not be identical. Identical values can stand only once. Inconclusive results are not listed.

For the compound `CSc1ncnc2nc[nH]c12`, the T/C is, setting by setting: (dose: 5.7 mg/kg/injection, schedule: Q01DX011 (ip), vehicle: carboxymethylcellulose (CMC)) 155 % of control; (dose: 11.5 mg/kg/injection, schedule: Q01DX011 (ip), vehicle: carboxymethylcellulose (CMC)) 115 % of control; (dose: 22.5 mg/kg/injection, schedule: Q01DX011 (ip), vehicle: carboxymethylcellulose (CMC)) 59 % of control and 81 % of control; (dose: 45.0 mg/kg/injection, schedule: Q01DX011 (ip), vehicle: carboxymethylcellulose (CMC)) 35 % of control and 42 % of control; (dose: 90.0 mg/kg/injection, schedule: Q01DX011 (ip), vehicle: carboxymethylcellulose (CMC)) 39 % of control.
For the compound `C[C@]12CCC(=O)C=C1CC[C@@H]1[C@@H]2[C@@H](O)C[C@@]2(C)[C@H]1CC[C@]2(O)C(=O)COC(=O)CCC(=O)O`, the T/C was 52 % of control (dose: 75.0 mg/kg/injection, schedule: Q01DX011 (sc), vehicle: steriod suspending solution); 49 % of control (dose: 150.0 mg/kg/injection, schedule: Q01DX011 (sc), vehicle: steriod suspending solution); 27 % of control (dose: 300.0 mg/kg/injection, schedule: Q01DX011 (sc), vehicle: steriod suspending solution).
With `O=C(Nc1ccc(C2=NCCN2)cc1)c1cc(Cl)cc(C(=O)Nc2ccc(C3=NCCN3)cc2)c1`, the T/C runs as follows: (dose: 62.0 mg/kg/injection, schedule: Q01DX011 (ip), vehicle: carboxymethylcellulose (CMC)) 75 % of control; (dose: 125.0 mg/kg/injection, schedule: Q01DX011 (ip), vehicle: carboxymethylcellulose (CMC)) 111 % of control; (dose: 250.0 mg/kg/injection, schedule: Q01DX011 (ip), vehicle: carboxymethylcellulose (CMC)) 81 % of control; (dose: 500.0 mg/kg/injection, schedule: Q01DX011 (ip), vehicle: carboxymethylcellulose (CMC)) 114 % of control.
In the case of `CN=C(N)c1ccc(N=C(N)c2ccc(C(N)=Nc3ccc(C(N)=NC)cc3)cc2)cc1`, the T/C is, setting by setting: (dose: 7.5 mg/kg/injection, schedule: Q01DX011 (ip), vehicle: saline) 182 % of control; (dose: 10.0 mg/kg/injection, schedule: Q01DX011 (ip), vehicle: saline) 183 % of control; (dose: 15.0 mg/kg/injection, schedule: Q01DX011 (ip), vehicle: saline) 165 % of control.
For `NC(=O)NO`, the T/C is 91 % of control (dose: 16.0 mg/kg/injection, schedule: Q01DX011 (ip), vehicle: carboxymethylcellulose (CMC)); 50 % of control (dose: 32.0 mg/kg/injection, schedule: Q01DX011 (ip), vehicle: carboxymethylcellulose (CMC)); 108 % of control under setting [1]; 8 % of control (dose: 64.0 mg/kg/injection, schedule: Q01DX011 (ip), vehicle: carboxymethylcellulose (CMC)); 7 % of control (dose: 64.0 mg/kg/injection, schedule: Q01DX011 (ip), vehicle: saline); 3 % of control (dose: 96.0 mg/kg/injection, schedule: Q01DX011 (ip), vehicle: saline). The T/C runs as follows: (dose: 128.0 mg/kg/injection, schedule: Q01DX011 (ip), vehicle: carboxymethylcellulose (CMC)) 4 % of control; (dose: 128.0 mg/kg/injection, schedule: Q01DX011 (ip), vehicle: saline) 4 % of control.
Consider `S=P(N1CCOCC1)(N1CC1)N1CC1`, for which the T/C was 71 % of control (dose: 12.5 mg/kg/injection, schedule: Q01DX011 (ip), vehicle: carboxymethylcellulose (CMC)) and 41 % of control under setting [2].
Take `CC(C)(C)c1ccc(S)cc1`: the T/C reads like this: under setting [2], 181 % of control; (dose: 50.0 mg/kg/injection, schedule: Q01DX011 (ip), vehicle: carboxymethylcellulose (CMC)) 121 % of control; under setting [3], 85 % of control.
For the compound `NC(Cc1ccc(N(CCCl)CCCl)cc1)C(=O)O` (stereo unspecified), the T/C runs as follows: (dose: 0.32 mg/kg/injection, schedule: Q01DX011 (ip), vehicle: carboxymethylcellulose (CMC)) 101 % of control; (dose: 0.64 mg/kg/injection, schedule: Q01DX011 (ip), vehicle: carboxymethylcellulose (CMC)) 87 % of control; (dose: 1.0 mg/kg/injection, schedule: Q01DX011 (ip), vehicle: carboxymethylcellulose (CMC)) 65 % of control; (dose: 1.28 mg/kg/injection, schedule: Q01DX011 (ip), vehicle: carboxymethylcellulose (CMC)) 101 % of control; (dose: 2.0 mg/kg/injection, schedule: Q01DX011 (ip), vehicle: carboxymethylcellulose (CMC)) 60 % of control; (dose: 2.56 mg/kg/injection, schedule: Q01DX011 (ip), vehicle: carboxymethylcellulose (CMC)) 70 % of control. In addition, the T/C (dose: 3.0 mg/kg/injection, schedule: Q01DX011 (ip), vehicle: carboxymethylcellulose (CMC)) is 57 % of control; the T/C (dose: 4.0 mg/kg/injection, schedule: Q01DX011 (ip), vehicle: carboxymethylcellulose (CMC)) is 32 % of control; the T/C under setting [4] is 36 % of control; the T/C (dose: 6.0 mg/kg/injection, schedule: Q01DX011 (ip), vehicle: carboxymethylcellulose (CMC)) was 13 % of control; the T/C (dose: 8.0 mg/kg/injection, schedule: Q01DX011 (ip), vehicle: carboxymethylcellulose (CMC)) is 7 % of control.
As to `O=c1[nH]c(=O)n(C2CC(O)C(CO)O2)cc1F` (stereo unspecified), the T/C is, setting by setting: (dose: 16.0 mg/kg/injection, schedule: Q01DX011 (ip), vehicle: saline) 92 % of control; under setting [2], 109 % of control; under setting [1], 97 % of control; (dose: 60.0 mg/kg/injection, schedule: Q01DX011 (ip), vehicle: carboxymethylcellulose (CMC)) 72 % of control and 47 % of control; (dose: 84.0 mg/kg/injection, schedule: Q01DX011 (ip), vehicle: saline) 119 % of control; under setting [3], 4 % of control and 16 % of control. In addition, the T/C is 18 % of control (dose: 120.0 mg/kg/injection, schedule: Q01DX011 (ip), vehicle: carboxymethylcellulose (CMC)); 16 % of control and 30 % of control (dose: 126.0 mg/kg/injection, schedule: Q01DX011 (ip), vehicle: saline).
As to `c1ncc2[nH]cnc2n1`, the T/C was 104 % of control (dose: 27.5 mg/kg/injection, schedule: Q01DX011 (ip), vehicle: carboxymethylcellulose (CMC)); 87 % of control (dose: 55.0 mg/kg/injection, schedule: Q01DX011 (ip), vehicle: carboxymethylcellulose (CMC)); 81 % of control (dose: 110.0 mg/kg/injection, schedule: Q01DX011 (ip), vehicle: carboxymethylcellulose (CMC)); 43 % of control (dose: 219.0 mg/kg/injection, schedule: Q01DX011 (ip), vehicle: carboxymethylcellulose (CMC)).
For `S=c1nc[nH]c2nc[nH]c12`, the T/C was 55 % of control (dose: 0.03 mg/kg/injection, schedule: Q01DX011 (ip), vehicle: carboxymethylcellulose (CMC)); 61 % of control (dose: 0.05 mg/kg/injection, schedule: Q01DX011 (ip), vehicle: carboxymethylcellulose (CMC)); 21 % of control (dose: 3.5 mg/kg/injection, schedule: Q01DX011 (ip), vehicle: carboxymethylcellulose (CMC)); 2 % of control and 10 % of control and 12 % of control under setting [4]; 13 % of control (dose: 7.0 mg/kg/injection, schedule: Q01DX011 (ip), vehicle: carboxymethylcellulose (CMC)); 9 % of control (dose: 14.0 mg/kg/injection, schedule: Q01DX011 (ip), vehicle: carboxymethylcellulose (CMC)). The T/C (dose: 42.0 mg/kg/injection, schedule: Q01DX011 (ip), vehicle: carboxymethylcellulose (CMC)) is 4 % of control and 7 % of control and 16 % of control.
With `CC(C)CCCCCCCCCCCCC(=O)NCC(=O)NC1C(O)C(O)C(Nc2ncnc3nc[nH]c23)OC1C(O)CO` (stereo unspecified), the T/C is 93 % of control (dose: 0.4 mg/kg/injection, schedule: Q01DX011 (ip), vehicle: carboxymethylcellulose (CMC)); 83 % of control (dose: 0.6 mg/kg/injection, schedule: Q01DX011 (ip), vehicle: carboxymethylcellulose (CMC)); 52 % of control (dose: 0.9 mg/kg/injection, schedule: Q01DX011 (ip), vehicle: carboxymethylcellulose (CMC)); 50 % of control (dose: 1.35 mg/kg/injection, schedule: Q01DX011 (ip), vehicle: carboxymethylcellulose (CMC)); 37 % of control (dose: 1.35 mg/kg/injection, schedule: Q01DX011 (ip), vehicle: saline).
On to `C1OC1C1CO1` (stereo unspecified), for which the T/C (dose: 4.5 mg/kg/injection, schedule: Q01DX011 (ip), vehicle: carboxymethylcellulose (CMC)) was 77 % of control; the T/C (dose: 9.0 mg/kg/injection, schedule: Q01DX011 (ip), vehicle: carboxymethylcellulose (CMC)) is 107 % of control and 115 % of control; the T/C (dose: 18.0 mg/kg/injection, schedule: Q01DX011 (ip), vehicle: carboxymethylcellulose (CMC)) was 70 % of control and 83 % of control.
